# Where a name gives a salt, the structure may show the parent alone.
# Tests used:
# T-47D = assay: Caspase cascade activation (caspase activity ratio and potency), fluorogenic N-(Ac-DEVD)-N'-ethoxycarbonyl-R110 substrate; format: cell-based, Human
# Procedure: Human breast cancer cell lines T-47D and DLD-1 were grown according to media component mixtures designated by American Type Culture Collection+10% FCS (Invitrogen Corporation), in a 5% CO2−95% humidity incubator at 37° C. T-47D and DLD-1 cells were maintained at a cell density between 50 and 80% confluency at a cell density of 0.1 to 0.6×10^6 cells/mL. Cells were harvested at 600×g and resuspended at 0.65×10^6 cells/mL into appropriate media+10% FCS. An aliquot of 22.5 μL of cells was added to a well of a 384-well microtiter plate containing 2.5 μL of a 10% DMSO in RPMI-1640 media solution containing 0.16 to 100 μM of (2-chloro-quinazolin-4-yl)-(4-methoxy-phenyl)-methyl-amine or other test compound (0.016 to 10 μM final). An aliquot of 22.5 μL of cells was added to a well of a 384-well microtiter plate containing 2.5 μL of a 10% DMSO in RPMI-1640 media solution without test compound as the control sample. […] […] The samples were mixed by agitation and incubated at room temperature. Using a fluorescent plate reader (Model SPECTRAfluor Plus, Tecan), an initial reading (T=0) was made approximately 1-2 min after addition of the substrate solution, employing excitation at 485 nm and emission at 530 nm, to determine the background fluorescence of the control sample. After the 3 h incubation, the samples were read for fluorescence as above (T=3 h).
# The Relative Fluorescence Unit values (RFU) were used to calculate the sample readings as follows: RFU(T=3h)−Control RFU(T=0)=Net RFU(T=3h)
# The activity of caspase cascade activation was determined by the ratio of the net RFU value for (2-chloro-quinazolin-4-yl)-(4-methoxy-phenyl)-methyl-amine or other test compounds to that of control samples. The EC50 (nM) was determined by a sigmoidal dose-response calculation (Prism 3.0, GraphPad Software Inc.).
# [1] = Determination of brain/plasma AUC ratio after tail vein injection; format: in vivo; conditions: mouse, intravenous, 0.0875 mg/mouse, mice, 0.10 mL of 0.875 mg/mL, AUC0-∞ from median plasma and brain concentrations
# Procedure: For each test compound, forty five mice were injected via the tail vein with 0.10 mL of a 0.875 mg/mL solution of test compound dissolved in a formulation of 5% Cremophor, 5% Ethanol, and 90% D5W, or a formulation variation thereof. Five mice at each collection time point of approximately 0.05, 0.25, 0.50, 1.00, 2.00, 4.00, 8.00, 12.0 and 24.0 hours post dose were euthanized by halothane inhalation. Approximately 0.30 to 1.00 mL of blood from each animal was collected via cardiac puncture into tubes containing EDTA. Immediately after exsanguination, the whole brain from each animal was removed. The plasma and whole brain samples were frozen (˜20° C.) separately until analysis. Plasma and brain samples were allowed to thaw at room temperature on the day of sample analysis. Prior to homogenization, the brains were weighed and three volumes of sterile water were added. Plasma and homogenized brain samples were extracted using a protein precipitation and filtration method. Briefly, 0.20 mL acetonitrile was added to 0.10 mL of sample in a Varian Captiva 20 μm filtration plate. A vacuum was applied to the plate and filtrates were collected. Filtrates were injected onto LC-MS/MS ABI2000 QTrap LC-MS/MS equipped with a reverse phase liquid chromatography inlet. Peak areas of the m/z product ions of the test compounds were measured against the peak are of the m/z internal standard production. The range of quantitation for the assay was between 1.00 and 1000 ng/mL for both analytes.
# Pharmacokinetic parameters (PK) for the test compounds were estimated on median plasma and brain concentrations using non-compartmental analysis in WinNonlin (Pharsight Corp., Mountain View, Calif.). The validation of this software program is reported in MPI-REP-PA-03.00. All values below the quantitation limit (BQL) of 1.00 ng/mL were excluded from PK analysis. The areas under the concentration-time curve (AUC0-∞) were calculated using a linear/log trapezoidal method.
Compound,Caspase activity Ratio (net RFU of test compound to control) (T-47D; T-47D (24 hr)),Kp [1],Caspase activity Ratio (net RFU of test compound to control) (T-47D; T-47D (48 hr))
"CNc1ccc(N(C)c2nc(C)nc3ccccc23)cc1 [Example 43, (2-Methyl-quinazolin-4-yl)-(4-methylamino-phenyl)-methylamine]",3.4,14.1,–
"COc1ccc(N(C)c2nc(C)nc3ccccc23)cc1 [Example 21, (4-Methoxy-phenyl)-methyl-(2-methyl-quinazolin-4-yl)-amine hydrochloride]",9.0,19.7,7.4
"CNc1nc(N(C)c2ccc(OC)cc2)c2ccccc2n1 [Example 39, (2-Methylamino-quinazolin-4-yl)-(4-methoxy-phenyl)-methyl-amine]",8.2,6.44,–
"COc1ccc(N(C)c2nc(Cl)nc3ccccc23)cc1 [Example 1, (2-Chloro-quinazolin-4-yl)-(4-methoxy-phenyl)-methyl-amine]",8.7,30,–
"COc1ccc(N(C)c2ccnc3ccccc23)cc1 [Example 17, (4-Methoxy-phenyl)-methyl-(quinolin-4-yl)-amine]",7.2,9.16,12.5
"COc1ccc(N(C)c2nc(N(C)C(C)=O)nc3ccccc23)cc1 [Example 51, (4-Methoxy-phenyl)-(2-N-methylacetamido-quinazolin-4-yl)-methylamine]",4.0,23.3,–
"CNc1nc(N(C)c2ccc(OC)nc2)c2ccccc2n1 [Example 40, (2-Methylamino-quinazolin-4-yl)-(6-methoxy-pyridin-3-yl)-methyl-amine]",10,10,–
